These results are taken from patent US20230117034A1, “PYRAZOLOTRIAZINES” (Bayer Aktiengesellschaft, priority 2019, published 2023).

The target of one assay is T1, CDK9/CycT1 (Homo sapiens, UniProt P50750).
T1 construct: Recombinant full-length His-tagged human CDK9 and CycT1; purchased Life Technologies PV4131; host or cells: insect cells
Nature of the assay: CDK9/CycT1 high ATP kinase assay (TR-FRET, 2 mM ATP). It counts as biochemical. As to conditions: 2 mM ATP (high ATP); median; read-out: CDK9/CyclinT1, 2 mM ATP (high ATP), IC50 (median). The method in brief: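 Full-length His-tagged human CDK9/CycT1 (insect cell, ~0.5 μg/mL) preincubated 15 min at 22 °C with compound in Tris pH 8.0, MgCl2, DTT buffer before reaction with biotinylated peptide substrate at high ATP (2 mM).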

Assay [1] concerns BRCA1 mRNA expression in MDA-MB-231 cells. Nature of the assay: qRT-PCR assay: BRCA1 mRNA expression in MDA-MB-231. As to conditions: Homo sapiens, MDA-MB-231, Inhibition of BRCA1 mRNA expression in MDA-MB-231 cells; median; read-out: RTqPCR-MDA-MB-231, IC50, BRCA1 (median). It counts as cell-based, human. The method in brief:
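MDA-MB-231 cells, 200,000/well, treated 24 h after plating with continuous 24 h compound exposure. RNA extracted, 600 ng reverse-transcribed, BRCA1 measured by RT-qPCR normalized to GAPDH.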
(In general: Quantitative PCR measures a nucleic acid by following its amplification.)

Assay [2] concerns the target T2, CDK12 (nuclear staining in CAL-120 cells) (Homo sapiens, UniProt Q9NYV4).
T2 construct: endogenous in cells; host or cells: CAL-120 human breast cancer cells (DSMZ ACC 459)
Nature of the assay: CDK12 nuclear protein level: immunofluorescence/high content analysis (CAL-120). It counts as cell-based. As to conditions: for DC50: CAL-120 cells, 24 h, immunofluorescence, 50% reduction of nuclear CDK12 staining intensity, median, read-out: CDK12 degradation IF, DC50- [mol/l] (median); for (IC50 CDK12 high ATP) to (Degradation DC50 CDK12) ratio: ratio of IC50 CDK12 high ATP kinase assay to DC50 CDK12 degradation (IF, CAL-120). In outline: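 CAL-120 cells were treated with compound for 24 h at 37 °C, fixed with PFA and immunostained for CDK12. Nuclear CDK12 intensity was quantified by automated image analysis and normalized to DMSO and control. DC50 is the concentration giving 50% reduction of nuclear staining.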

SMILES strings stand for the structures.

T1 sequence (P50750 whole entry): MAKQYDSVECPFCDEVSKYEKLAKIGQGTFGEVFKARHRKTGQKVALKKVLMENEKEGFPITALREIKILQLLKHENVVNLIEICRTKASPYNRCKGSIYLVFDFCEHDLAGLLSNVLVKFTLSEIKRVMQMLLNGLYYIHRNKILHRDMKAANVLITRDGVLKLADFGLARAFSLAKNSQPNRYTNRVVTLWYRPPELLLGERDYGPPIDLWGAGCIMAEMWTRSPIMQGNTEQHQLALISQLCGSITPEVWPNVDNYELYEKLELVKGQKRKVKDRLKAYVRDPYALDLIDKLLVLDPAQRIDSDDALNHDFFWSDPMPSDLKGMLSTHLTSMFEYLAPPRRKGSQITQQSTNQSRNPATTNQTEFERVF
T1 sequence (O60563 whole entry partner): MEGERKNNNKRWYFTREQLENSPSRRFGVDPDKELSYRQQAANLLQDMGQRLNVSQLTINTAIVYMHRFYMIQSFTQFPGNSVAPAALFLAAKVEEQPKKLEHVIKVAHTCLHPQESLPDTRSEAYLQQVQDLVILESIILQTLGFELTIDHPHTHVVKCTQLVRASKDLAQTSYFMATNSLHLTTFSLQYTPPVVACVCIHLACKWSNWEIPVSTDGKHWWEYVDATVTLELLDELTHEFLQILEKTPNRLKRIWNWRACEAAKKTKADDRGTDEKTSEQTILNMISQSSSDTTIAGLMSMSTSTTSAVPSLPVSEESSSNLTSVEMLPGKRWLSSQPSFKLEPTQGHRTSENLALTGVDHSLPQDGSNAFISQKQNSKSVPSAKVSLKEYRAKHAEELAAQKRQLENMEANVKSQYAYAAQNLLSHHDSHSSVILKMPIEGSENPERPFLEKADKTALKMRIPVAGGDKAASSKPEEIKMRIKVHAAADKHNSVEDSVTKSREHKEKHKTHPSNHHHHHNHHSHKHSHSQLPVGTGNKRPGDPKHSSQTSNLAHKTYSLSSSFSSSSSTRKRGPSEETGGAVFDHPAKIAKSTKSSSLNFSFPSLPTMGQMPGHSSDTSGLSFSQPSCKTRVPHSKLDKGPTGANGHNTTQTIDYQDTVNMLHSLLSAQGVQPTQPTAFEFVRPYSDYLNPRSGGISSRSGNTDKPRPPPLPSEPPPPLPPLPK
T2 sequence (Q9NYV4 whole entry): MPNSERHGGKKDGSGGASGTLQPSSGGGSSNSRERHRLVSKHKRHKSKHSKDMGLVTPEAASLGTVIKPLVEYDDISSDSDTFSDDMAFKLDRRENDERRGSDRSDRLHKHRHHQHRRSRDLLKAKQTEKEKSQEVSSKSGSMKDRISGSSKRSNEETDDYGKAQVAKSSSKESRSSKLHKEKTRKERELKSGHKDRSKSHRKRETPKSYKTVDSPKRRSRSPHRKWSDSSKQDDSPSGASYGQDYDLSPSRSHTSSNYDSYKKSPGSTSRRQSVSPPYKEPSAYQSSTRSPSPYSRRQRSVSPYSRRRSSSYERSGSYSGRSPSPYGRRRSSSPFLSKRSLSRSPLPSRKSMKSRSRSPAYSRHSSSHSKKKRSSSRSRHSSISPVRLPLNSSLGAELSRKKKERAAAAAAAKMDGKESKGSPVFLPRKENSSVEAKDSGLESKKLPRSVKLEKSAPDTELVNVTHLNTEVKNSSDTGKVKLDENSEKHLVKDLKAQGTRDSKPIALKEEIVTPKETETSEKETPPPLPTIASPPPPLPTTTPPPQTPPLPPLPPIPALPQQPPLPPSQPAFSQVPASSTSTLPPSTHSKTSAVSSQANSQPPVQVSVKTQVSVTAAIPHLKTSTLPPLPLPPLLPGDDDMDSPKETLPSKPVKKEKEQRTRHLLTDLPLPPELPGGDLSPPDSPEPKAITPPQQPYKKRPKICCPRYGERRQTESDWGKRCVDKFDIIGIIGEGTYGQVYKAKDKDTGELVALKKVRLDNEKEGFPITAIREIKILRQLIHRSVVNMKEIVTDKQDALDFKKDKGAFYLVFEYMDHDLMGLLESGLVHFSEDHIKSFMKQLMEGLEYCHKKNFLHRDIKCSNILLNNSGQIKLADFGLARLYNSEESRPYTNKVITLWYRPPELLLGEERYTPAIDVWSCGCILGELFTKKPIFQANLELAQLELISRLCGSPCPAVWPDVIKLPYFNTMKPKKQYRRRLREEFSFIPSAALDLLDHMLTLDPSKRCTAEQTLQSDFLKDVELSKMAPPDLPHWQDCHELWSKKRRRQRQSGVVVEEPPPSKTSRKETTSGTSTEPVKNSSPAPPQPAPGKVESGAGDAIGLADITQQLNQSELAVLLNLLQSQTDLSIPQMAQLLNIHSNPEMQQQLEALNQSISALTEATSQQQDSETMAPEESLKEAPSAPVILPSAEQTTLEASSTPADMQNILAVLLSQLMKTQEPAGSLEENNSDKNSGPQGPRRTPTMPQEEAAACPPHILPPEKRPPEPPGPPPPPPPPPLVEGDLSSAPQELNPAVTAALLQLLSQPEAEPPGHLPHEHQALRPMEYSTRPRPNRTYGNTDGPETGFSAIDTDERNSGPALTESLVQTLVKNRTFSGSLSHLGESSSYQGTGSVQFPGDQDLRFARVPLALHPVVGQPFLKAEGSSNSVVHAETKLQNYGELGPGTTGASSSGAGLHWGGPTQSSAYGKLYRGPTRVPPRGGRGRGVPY
T2 sequence (O75909 whole entry partner): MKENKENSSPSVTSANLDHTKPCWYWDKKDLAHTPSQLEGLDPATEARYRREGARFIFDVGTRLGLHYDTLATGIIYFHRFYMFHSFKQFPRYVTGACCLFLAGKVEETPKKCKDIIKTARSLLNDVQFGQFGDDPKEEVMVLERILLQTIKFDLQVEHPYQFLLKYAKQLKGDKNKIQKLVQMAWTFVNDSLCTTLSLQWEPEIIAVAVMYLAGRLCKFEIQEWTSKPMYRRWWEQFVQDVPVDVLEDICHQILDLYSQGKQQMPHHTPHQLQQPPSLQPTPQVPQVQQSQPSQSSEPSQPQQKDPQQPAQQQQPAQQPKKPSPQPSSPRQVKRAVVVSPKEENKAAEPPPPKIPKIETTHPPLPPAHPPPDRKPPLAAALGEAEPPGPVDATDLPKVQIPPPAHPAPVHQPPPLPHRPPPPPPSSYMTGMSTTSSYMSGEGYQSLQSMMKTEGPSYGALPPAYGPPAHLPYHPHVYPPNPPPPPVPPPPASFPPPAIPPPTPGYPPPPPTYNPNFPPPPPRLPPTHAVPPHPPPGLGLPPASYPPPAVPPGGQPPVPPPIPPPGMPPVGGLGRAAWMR

Regarding `CC1(C)CN(c2nc(NCc3nnc(-c4ccccc4)[nH]3)n3ncc(Br)c3n2)CCO1` [Example 68, 8-bromo-2-(2,2-dimethylmorpholin-4-yl)-N-[(5-phenyl-4H-1,2,4-triazol-3-yl)methyl]pyrazolo[1,5-a][1,3,5]triazin-4-amine], the IC50 on CDK9/CycT1 was found to be 5.34 µM. Also, in assay [1], the IC50 amounted to 43.4 nM. Besides, in assay [2], the DC50 turned out to be 13.3 nM and the “(IC50 CDK12 high ATP) to (Degradation DC50 CDK12) ratio” value is given as 415.
In the same order, the values of `Fc1ccc2[nH]c(CNc3nc(N4CCOCC4)nc4c(-c5cnn(C(F)F)c5)cnn34)nc2c1F` [Example 422, N-[(4,5-difluoro-1H-benzimidazol-2-yl)methyl]-8-[1-(difluoromethyl)-1H-pyrazol-4-yl]-2-(morpholin-4-yl)pyrazolo[1,5-a][1,3,5]triazin-4-amine] are above 20 µM, 7.43 nM, 6.81 nM and 239.
In the same order, the values of `COc1cccc(-c2cnc(CNc3nc(N4CCOCC4)nc4c(Br)cnn34)[nH]2)c1` [Example 80, 8-bromo-N-{[5-(3-methoxyphenyl)-1H-imidazol-2-yl]methyl}-2-(morpholin-4-yl)pyrazolo[1,5-a][1,3,5]triazin-4-amine] are 5.43 µM, 18.3 nM, 4.28 nM and 276.
On to `Fc1ccccc1-c1cnc(CNc2nc(N3CCOCC3)nc3c(Br)cnn23)[nH]1` [Example 86, 8-bromo-N-{[5-(2-fluorophenyl)-1H-imidazol-2-yl]methyl}-2-(morpholin-4-yl)pyrazolo[1,5-a][1,3,5]triazin-4-amine], for which the values for the IC50 (at CDK9/CycT1; in assay [1]) were 5.27 µM and 17.1 nM, respectively. Besides, the DC50 in assay [2] is 3.95 nM. In addition, in assay [2], the “(IC50 CDK12 high ATP) to (Degradation DC50 CDK12) ratio” value worked out at 478.
For the compound `COc1ccccc1-c1cnc(CNc2nc(N3CCOCC3)nc3c(Br)cnn23)[nH]1` [Example 87, 8-bromo-N-{[5-(2-methoxyphenyl)-1H-imidazol-2-yl]methyl}-2-(morpholin-4-yl)pyrazolo[1,5-a][1,3,5]triazin-4-amine], the IC50 on CDK9/CycT1 was found to be 5.13 µM; in assay [1], 10.7 nM. For the same compound, in assay [2], the DC50 amounted to 2.16 nM. The “(IC50 CDK12 high ATP) to (Degradation DC50 CDK12) ratio” value in assay [2] amounted to 1196.
